# Experimental data taken from patent US6353003B1, “Method for reducing levels of homocysteine and C-reactive protein” (Eli Lilly and Company, priority 1998, dated 2002).
# Experiments:
# [1] = system: C-reactive protein; assay: Clinical investigation: C-reactive protein levels after six months versus baseline; type: in vivo, human; design: lowered C-reactive protein: unit not given here; settings: postmenopausal women, six months vs patient's baseline, NS
# Procedure: (§1) A clinical investigation was conducted which included 390 women (45-72 years old), who were an average of ten years postmenopausal. These patients were randomly assigned to the following treatment protocol: raloxifene hydrochloride at 60 mg per day via oral administration (cf. Formulation 2, supra), raloxifene at 120 mg per day, or HRT therapy. Homocysteine and C-reactive protein baseline levels were determined, prior to the initiation of therapy. Methods for such determinations are well known and can be found in the references cited, supra. The study was conducted for a period of six months. The levels of homocysteine and C-reactive protein in each patient were compared at the end of six months with that patient's baseline. Results were analyzed by variance. Raloxifene at 60 mg per day lowered levels of homocysteine by 8% (p<0.05) and C-reactive protein by 4% (NS). Raloxifene at 120 mg per day lowered homocysteine by 5.7% (p<0.05) and C-reactive protien by −3.9 (NS).
# [2] = system: homocysteine; assay: Clinical investigation: homocysteine levels after six months versus baseline; type: in vivo, human; settings: postmenopausal women, six months vs patient's baseline, p<0.05
# Procedure: as §1
smiles,measurement,setting,value
"Cl.O=C(c1ccc(OCCN2CCCCC2)cc1)c1c(-c2ccc(O)cc2)sc2cc(O)ccc12 [Raloxifene, [2-(4-hydroxyphenyl)-6-hydroxybenzo [b]thien-3-yl][4-[2-(1-piperidinyl)ethoxy]phenyl]methanone hydrochloride]",lowered levels of C-reactive protein,[1]; 60 mg per day oral,4%
same,lowered C-reactive protein,[1]; 120 mg per day,−3.9
same,lowered levels of homocysteine,[2]; 60 mg per day oral,8%
same,lowered homocysteine,[2]; 120 mg per day,5.7%
